Laboratory results as given in ChEMBL document CHEMBL5537110, “SIRT1-dependent mitochondrial biogenesis supports therapeutic effects of 4-butyl-polyhydroxybenzophenone compounds against NAFLD” (Eur J Med Chem, 2023).
Activity calls are given as the source filed them. The calls are words filed in the database; no cut-off is given here.

Columns and labels:
EA.hy 926 [1] = assay: Cytoprotective activity against H2O2-induced toxicity in human EA.hy 926 cells assessed as protective rate at 10 uM pretreated with compound for 4 hrs followed by incubation with H2O2 for 2 hrs by absorbance based analysis; assay type: functional; settings: time 6 hrs
EA.hy 926 [2] = assay: Cytoprotective activity against H2O2-induced toxicity in human EA.hy 926 cells assessed as protective rate pretreated with compound for 4 hrs followed by incubation with H2O2 for 2 hrs by absorbance based analysis; assay type: functional, cell-based
[3] = molecular target: T1, Peroxisome proliferator-activated receptor gamma coactivator 1-alpha (Homo sapiens) (UniProt Q9UBK2); assay: Binding affinity to PGC1alpha (unknown origin) by surface plasmon resonance assay; settings: filed as activator
T1 sequence (whole entry): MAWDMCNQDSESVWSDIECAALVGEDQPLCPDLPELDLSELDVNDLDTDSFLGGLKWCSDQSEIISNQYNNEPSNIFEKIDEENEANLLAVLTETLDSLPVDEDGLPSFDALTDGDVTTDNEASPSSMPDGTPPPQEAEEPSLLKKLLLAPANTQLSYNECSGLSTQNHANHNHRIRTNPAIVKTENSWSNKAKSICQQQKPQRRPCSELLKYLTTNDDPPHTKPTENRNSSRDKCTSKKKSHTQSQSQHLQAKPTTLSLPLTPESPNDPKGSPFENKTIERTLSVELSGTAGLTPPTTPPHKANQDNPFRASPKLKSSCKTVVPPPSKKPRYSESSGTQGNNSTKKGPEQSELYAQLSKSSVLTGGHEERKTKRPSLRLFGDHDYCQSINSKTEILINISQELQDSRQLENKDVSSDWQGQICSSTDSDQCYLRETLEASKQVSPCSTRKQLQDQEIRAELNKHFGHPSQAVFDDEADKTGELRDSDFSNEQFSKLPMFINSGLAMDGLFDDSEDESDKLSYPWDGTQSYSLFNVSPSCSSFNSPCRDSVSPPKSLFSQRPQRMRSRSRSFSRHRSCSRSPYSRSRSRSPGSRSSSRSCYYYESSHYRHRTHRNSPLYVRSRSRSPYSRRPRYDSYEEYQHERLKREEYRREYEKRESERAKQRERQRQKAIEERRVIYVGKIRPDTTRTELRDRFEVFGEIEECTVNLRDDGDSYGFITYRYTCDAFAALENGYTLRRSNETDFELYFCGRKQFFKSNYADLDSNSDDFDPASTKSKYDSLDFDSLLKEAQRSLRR

[4] = molecular target: T2, NAD-dependent protein deacetylase sirtuin-1 (Homo sapiens) (UniProt Q96EB6); assay: Binding affinity to SIRT1 (unknown origin) by surface plasmon resonance assay; settings: filed as activator
T2 sequence (whole entry): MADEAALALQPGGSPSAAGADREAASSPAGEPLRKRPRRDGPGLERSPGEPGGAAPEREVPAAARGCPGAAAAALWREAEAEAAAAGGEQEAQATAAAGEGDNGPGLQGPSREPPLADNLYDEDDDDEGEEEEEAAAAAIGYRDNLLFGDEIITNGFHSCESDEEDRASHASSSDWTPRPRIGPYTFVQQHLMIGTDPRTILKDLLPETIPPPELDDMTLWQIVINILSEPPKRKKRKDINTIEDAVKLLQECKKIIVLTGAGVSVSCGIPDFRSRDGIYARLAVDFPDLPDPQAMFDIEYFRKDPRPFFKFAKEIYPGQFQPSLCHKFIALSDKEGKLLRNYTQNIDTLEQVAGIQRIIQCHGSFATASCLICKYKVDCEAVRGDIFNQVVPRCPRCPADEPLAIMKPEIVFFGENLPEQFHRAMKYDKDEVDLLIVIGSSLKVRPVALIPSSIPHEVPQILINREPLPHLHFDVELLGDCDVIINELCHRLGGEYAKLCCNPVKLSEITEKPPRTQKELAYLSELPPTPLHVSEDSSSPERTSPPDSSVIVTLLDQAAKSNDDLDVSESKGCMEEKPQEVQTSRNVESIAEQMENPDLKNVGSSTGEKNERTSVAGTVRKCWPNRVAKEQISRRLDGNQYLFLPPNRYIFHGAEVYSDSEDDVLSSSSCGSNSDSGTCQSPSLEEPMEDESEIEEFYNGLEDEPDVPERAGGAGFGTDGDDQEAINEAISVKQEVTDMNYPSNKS

Row | Activity [3] | Activity [4] | Structure (SMILES) | Activity (EA.hy 926 [1]) [%] | EC50 (EA.hy 926 [2]) [nM]
1 | – | – | CC(C)Cc1ccc(C(=O)c2c(O)cc(O)cc2Cl)cc1 | -8.4 | –
2 | – | – | Cc1c(O)ccc(C(=O)c2ccc(CC(C)C)cc2)c1O | 17.37 | –
3 | – | – | CC(C)(C)c1ccc(C(=O)c2c(O)cc(O)cc2Cl)cc1 | -49 | –
4 | – | – | O=c1c(O)c(-c2ccc(O)c(O)c2)oc2cc(O)cc(O)c12 [QUERCETIN] | 55.2 | 2670
5 | – | – | CC(C)Cc1ccc(C(=O)c2cc(O)c(Cl)cc2O)cc1 | -3.92 | –
6 | – | – | CCCCc1ccc(C(=O)c2cc(O)ccc2O)cc1 | 39.03 | –
7 | – | – | COc1cc(O)cc(Cl)c1C(=O)c1ccc(C(C)(C)C)cc1 | -64 | –
8 | – | – | CC(C)(C)c1ccc(C(=O)c2c(O)cc(O)cc2O)cc1 | -64 | –
9 | – | – | CCCCc1ccc(C(=O)c2ccc(O)c(C)c2O)cc1 | 2.8 | –
10 | – | – | CCCCc1ccc(C(=O)c2cc(O)c(Cl)cc2O)cc1 | 21.66 | –
11 | – | – | CC(C)(C)c1ccc(C(=O)c2cc(O)ccc2O)cc1 | -7 | –
12 | Active | Active | CC(C)(C)c1ccc(C(=O)c2cc(O)c(O)cc2F)cc1 | 80.56 | 104
13 | – | – | CCCCc1ccc(C(=O)c2c(O)cc(O)cc2O)cc1 | 36.04 | –
14 | Active | Active | CCCCc1ccc(C(=O)c2ccc(O)c(O)c2)cc1 | 70.59 | 84.2
15 | – | – | CC(C)(C)c1ccc(C(=O)c2cc(O)c(Cl)cc2O)cc1 | -67 | –
16 | – | – | CCCCc1ccc(C(=O)c2c(O)cc(O)cc2Cl)cc1 | 38.47 | –
17 | – | – | CCCCc1ccc(C(=O)c2c(Cl)cc(O)cc2OC)cc1 | 11.76 | –
18 | – | – | CC(C)(C)c1ccc(C(=O)c2ccc(O)c(O)c2O)cc1 | -6.9 | –
19 | – | – | CCCCc1ccc(C(=O)c2ccc(O)c(O)c2O)cc1 | 64.71 | –
20 | – | – | Cc1c(O)ccc(C(=O)c2ccc(C(C)(C)C)cc2)c1O | -67.36 | –
21 | Active | Active | CC(C)Cc1ccc(C(=O)c2ccc(O)c(O)c2O)cc1 | 93.75 | 118
22 | – | – | CC(C)Cc1ccc(C(=O)c2cc(O)ccc2O)cc1 | 8.96 | –
23 | Active | Active | CC(C)Cc1ccc(C(=O)c2cc(O)c(O)cc2F)cc1 | 93.75 | 80.8
24 | – | – | COc1cc(O)cc(Cl)c1C(=O)c1ccc(CC(C)C)cc1 | 2.99 | –
25 | Active | Active | CC(C)Cc1ccc(C(=O)c2ccc(O)c(O)c2)cc1 | 93.75 | 81
26 | – | – | CCCCc1ccc(C(=O)c2cc(O)c(O)cc2F)cc1 | 58.82 | –
27 | – | – | CC(C)Cc1ccc(C(=O)c2c(O)cc(O)cc2O)cc1 | 21.63 | –
